Test results as given in ChEMBL document CHEMBL1201862, “PubChem BioAssay data set” (2004).
Active and inactive are the calls of the source.

Experiments:
[1] = target: Voltage-dependent T-type calcium channel subunit alpha-1H (Homo sapiens, UniProt O95180); assay type: functional;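 note: channel activity triggered by adding a high calcium stimulation buffer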
[2] = Vero E6 cell cytotoxicity, dose response, cytotoxicity control for non-replicating M. tuberculosis project, secondary assay (AID 492998); assay type: functional, VeroE6; settings: Vero C1008
[3] = microbe, parasite or virus in culture; assay type: functional; settings: Mycobacterium tuberculosis
[4] = cells; assay type: functional
[5] = tested on: Streptococcus sp. 'group A'; assay: growth inhibition of control SK(-) GAS strain, dose response, counter-screen for streptokinase expression inhibitor project, luminescence, kanamycin, BacTiterGlo, confirmation (AID 1900); assay type: functional, organism-based
[6] = HepG2 cell cytotoxicity, dose response, cytotoxicity control for non-replicating M. tuberculosis project (AID 489018); assay type: functional; settings: Mycobacterium tuberculosis
[7] = target: Cytochrome P450 2D6 (Homo sapiens, UniProt P10635);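 note: CYP2D6 member of a cytochrome P450 panel assay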
[8] = tested on: Streptococcus; assay: Group A Streptococcus viability loss, dose response, counter-screen for streptokinase expression inhibitor project, luminescence, BacTiterGlo (AID 1915); assay type: functional, organism-based;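 note: potency for reduction of bacterial viability or growth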
[9] = target: T1, Streptokinase A (Streptococcus pyogenes serotype M1, UniProt P10520); assay: S. pyogenes streptokinase expression inhibitors, potency, dose response, plasminogen activation absorbance, OD405 (AID 1914); assay type: functional, Streptococcus pyogenes M1 GAS;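 note: secreted streptokinase activity via plasminogen activation per viability signal from cell pellet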
T1 sequence (P10520 whole entry): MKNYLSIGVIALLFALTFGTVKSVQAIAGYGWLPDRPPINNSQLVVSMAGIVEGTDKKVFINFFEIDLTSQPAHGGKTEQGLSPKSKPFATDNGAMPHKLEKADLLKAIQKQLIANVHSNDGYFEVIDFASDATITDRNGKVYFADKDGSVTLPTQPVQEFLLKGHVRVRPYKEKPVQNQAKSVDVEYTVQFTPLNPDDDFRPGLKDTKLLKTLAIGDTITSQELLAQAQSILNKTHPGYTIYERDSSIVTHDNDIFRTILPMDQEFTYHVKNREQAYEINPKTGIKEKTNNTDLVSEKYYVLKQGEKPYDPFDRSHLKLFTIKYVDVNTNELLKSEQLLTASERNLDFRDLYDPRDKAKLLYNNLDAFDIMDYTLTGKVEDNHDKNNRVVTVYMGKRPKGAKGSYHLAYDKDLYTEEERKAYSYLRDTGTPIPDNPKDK

[10] = THP-1 cell cytotoxicity, dose response, cytotoxicity control for non-replicating M. tuberculosis project (AID 489025); assay type: functional
[11] = target: T2, Cytochrome P450 3A4 (Homo sapiens, UniProt P08684)
[12] = target: T2, Cytochrome P450 3A4; settings: Potency
[13] = cells; assay type: functional, cell-based
[14] = cells; assay type: functional, cell-based; remark: listed apart in the source
[15] = P. falciparum Dd2 growth inhibitors, dose response, SYBR Green, cherry-picked samples (AID 1159567); assay type: functional, cell-based
[16] = target: T3, Short transient receptor potential channel 4 (Mus musculus, UniProt Q9QUQ5); assay: mouse TRPC4 channel activators, dose response, cell-based, HEK293 TRPC4/mu-opioid, Fluo-4 calcium (AID 434937); assay type: functional
T3 sequence (Q9QUQ5 whole entry): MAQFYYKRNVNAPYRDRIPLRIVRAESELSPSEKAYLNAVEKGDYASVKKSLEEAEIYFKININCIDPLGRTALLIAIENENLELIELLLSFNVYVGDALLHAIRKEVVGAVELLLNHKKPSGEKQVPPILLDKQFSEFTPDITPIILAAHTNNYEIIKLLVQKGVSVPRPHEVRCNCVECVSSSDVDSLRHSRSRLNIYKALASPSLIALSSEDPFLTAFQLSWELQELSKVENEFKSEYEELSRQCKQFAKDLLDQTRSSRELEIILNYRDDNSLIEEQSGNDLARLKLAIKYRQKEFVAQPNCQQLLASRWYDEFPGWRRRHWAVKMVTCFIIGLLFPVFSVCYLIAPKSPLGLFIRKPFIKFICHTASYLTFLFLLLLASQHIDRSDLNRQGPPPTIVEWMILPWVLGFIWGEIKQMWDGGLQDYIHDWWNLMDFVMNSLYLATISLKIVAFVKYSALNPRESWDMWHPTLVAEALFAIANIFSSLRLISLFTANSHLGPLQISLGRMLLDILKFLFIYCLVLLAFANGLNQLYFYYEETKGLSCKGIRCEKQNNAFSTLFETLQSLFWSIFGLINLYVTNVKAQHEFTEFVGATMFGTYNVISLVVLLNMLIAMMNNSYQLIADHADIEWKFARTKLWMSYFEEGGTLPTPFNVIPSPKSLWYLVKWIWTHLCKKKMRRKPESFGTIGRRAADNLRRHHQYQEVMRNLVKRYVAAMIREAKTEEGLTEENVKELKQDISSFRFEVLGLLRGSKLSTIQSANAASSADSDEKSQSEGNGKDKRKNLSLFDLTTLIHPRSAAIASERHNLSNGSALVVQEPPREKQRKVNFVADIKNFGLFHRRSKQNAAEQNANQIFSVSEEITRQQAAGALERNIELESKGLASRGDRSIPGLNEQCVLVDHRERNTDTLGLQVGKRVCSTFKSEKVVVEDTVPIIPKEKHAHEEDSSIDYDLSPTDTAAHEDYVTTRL

[17] = growth suppression of PTEN-null colon cells, dose response, cell-based, HCT116 PTEN knockout (AID 1047); assay type: functional;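 note: HCT116 colon tumor cells with PTEN knocked out; cells exposed to compound for 60 hours before readout; potency for loss of cell viability measured by luminescence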
[18] = target: T4, Cytochrome P450 1A2 (Homo sapiens, UniProt P05177);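 note: PubChem cytochrome P450 panel assay, CYP1A2 panel member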
T4 sequence (P05177 whole entry): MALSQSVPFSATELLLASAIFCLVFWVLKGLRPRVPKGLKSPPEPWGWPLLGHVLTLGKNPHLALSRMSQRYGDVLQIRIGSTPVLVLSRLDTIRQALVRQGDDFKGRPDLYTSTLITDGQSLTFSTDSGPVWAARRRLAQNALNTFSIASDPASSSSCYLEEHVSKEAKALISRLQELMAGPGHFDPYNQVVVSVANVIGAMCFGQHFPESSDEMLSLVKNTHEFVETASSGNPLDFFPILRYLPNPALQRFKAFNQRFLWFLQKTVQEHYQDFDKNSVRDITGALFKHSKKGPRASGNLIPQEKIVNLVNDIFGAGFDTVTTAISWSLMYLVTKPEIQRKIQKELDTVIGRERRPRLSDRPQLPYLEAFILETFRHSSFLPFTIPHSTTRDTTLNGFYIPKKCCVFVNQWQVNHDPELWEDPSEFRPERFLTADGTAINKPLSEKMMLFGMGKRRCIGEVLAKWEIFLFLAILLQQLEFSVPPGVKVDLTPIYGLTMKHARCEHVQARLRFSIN

[19] = tested on: H9c2; assay: cells; assay type: functional, cell-based; settings: Rattus norvegicus, H9c2, Myocardium;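 note: confirmatory concentration-response retest of ultra-high-throughput screening hits for modulation of myocardial damage; cell death induced by hydrogen peroxide oxidative stress; compound pretreatment for 60 min then peroxide exposure for 2 h; potency is for protecting the cells against peroxide damage rather than for killing them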
[20] = growth suppression of beta-catenin-knockout colon cells, dose response, cell-based, HCT116, human colon tumor (AID 1045); assay type: functional;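 note: HCT116 colon tumor cells with beta catenin knocked out; cells exposed to compound for 60 hours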
[21] = LGR2 antagonists, dose response, cell-based, HEK293, CRE-luciferase reporter, cherry pick, set 2 (AID 743343); assay type: functional;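 note: transfected cells were stimulated with diluted bursicon conditioned medium after compound addition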
[22] = MC4R antagonists, dose response, counter-screen for LGR2 antagonist project, cell-based, plate reader, cherry pick (AID 743444); assay type: functional;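 note: transfected HEK 293 cells stimulated with alpha-MSH peptide; potency of inhibitors of the alpha-MSH evoked signal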
[23] = tested on: HEK293; assay: inhibitors of LMP1-driven NF-kB reporter, dose response, cell-based, HEK293, luciferase, cherry-pick (AID 588343); assay type: functional; settings: Homo sapiens
[24] = NIH:OVCAR-3 ovarian cancer cell cytotoxicity, dose response, PAX8 inhibitor project, plate reader, dry powder samples (AID 743044); assay type: functional, cell-based
[25] = target: Paired box protein Pax-8 (Homo sapiens, UniProt Q06710); assay: inhibitors of PAX8-driven TPO luciferase reporter, dose response, RMG-I cells, cherry-pick (AID 687027); assay type: functional, cell-based;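 note: luciferase reporter driven by Pax8 target thyroperoxidase promoter measured by SteadyGlo luminescence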
[26] = HepG2 cell cytotoxicity, dose response, cytotoxicity control, plate reader, cherry-pick, antagonist series (AID 743416); assay type: functional, cell-based
[27] = A549 cell cytotoxicity, dose response, cytotoxicity control, plate reader, cherry-pick, antagonist series (AID 743412); assay type: functional, cell-based
[28] = cytotoxicity in OVCAR8 ovarian cancer cells, dose response, PAX8 project, cell-based, plate reader, dry powder samples (AID 743197); assay type: functional; settings: OVCAR-8

T2 sequence (P08684 whole entry): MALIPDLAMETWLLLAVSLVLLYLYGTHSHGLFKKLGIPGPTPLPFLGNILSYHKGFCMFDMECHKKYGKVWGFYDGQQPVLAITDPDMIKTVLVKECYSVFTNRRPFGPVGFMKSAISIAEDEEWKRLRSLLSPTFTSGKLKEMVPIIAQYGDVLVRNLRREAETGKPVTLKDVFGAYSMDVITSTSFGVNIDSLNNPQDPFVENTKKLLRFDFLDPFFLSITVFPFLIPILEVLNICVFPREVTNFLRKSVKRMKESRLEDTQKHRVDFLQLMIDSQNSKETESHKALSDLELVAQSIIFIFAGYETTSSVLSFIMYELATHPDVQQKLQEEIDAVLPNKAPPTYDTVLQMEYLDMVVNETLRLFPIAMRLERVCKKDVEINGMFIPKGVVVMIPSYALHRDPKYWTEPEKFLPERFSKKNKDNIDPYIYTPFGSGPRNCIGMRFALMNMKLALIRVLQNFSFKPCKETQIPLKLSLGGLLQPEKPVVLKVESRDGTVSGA
Sequence of Voltage-dependent T-type calcium channel subunit alpha-1H (O95180 whole entry): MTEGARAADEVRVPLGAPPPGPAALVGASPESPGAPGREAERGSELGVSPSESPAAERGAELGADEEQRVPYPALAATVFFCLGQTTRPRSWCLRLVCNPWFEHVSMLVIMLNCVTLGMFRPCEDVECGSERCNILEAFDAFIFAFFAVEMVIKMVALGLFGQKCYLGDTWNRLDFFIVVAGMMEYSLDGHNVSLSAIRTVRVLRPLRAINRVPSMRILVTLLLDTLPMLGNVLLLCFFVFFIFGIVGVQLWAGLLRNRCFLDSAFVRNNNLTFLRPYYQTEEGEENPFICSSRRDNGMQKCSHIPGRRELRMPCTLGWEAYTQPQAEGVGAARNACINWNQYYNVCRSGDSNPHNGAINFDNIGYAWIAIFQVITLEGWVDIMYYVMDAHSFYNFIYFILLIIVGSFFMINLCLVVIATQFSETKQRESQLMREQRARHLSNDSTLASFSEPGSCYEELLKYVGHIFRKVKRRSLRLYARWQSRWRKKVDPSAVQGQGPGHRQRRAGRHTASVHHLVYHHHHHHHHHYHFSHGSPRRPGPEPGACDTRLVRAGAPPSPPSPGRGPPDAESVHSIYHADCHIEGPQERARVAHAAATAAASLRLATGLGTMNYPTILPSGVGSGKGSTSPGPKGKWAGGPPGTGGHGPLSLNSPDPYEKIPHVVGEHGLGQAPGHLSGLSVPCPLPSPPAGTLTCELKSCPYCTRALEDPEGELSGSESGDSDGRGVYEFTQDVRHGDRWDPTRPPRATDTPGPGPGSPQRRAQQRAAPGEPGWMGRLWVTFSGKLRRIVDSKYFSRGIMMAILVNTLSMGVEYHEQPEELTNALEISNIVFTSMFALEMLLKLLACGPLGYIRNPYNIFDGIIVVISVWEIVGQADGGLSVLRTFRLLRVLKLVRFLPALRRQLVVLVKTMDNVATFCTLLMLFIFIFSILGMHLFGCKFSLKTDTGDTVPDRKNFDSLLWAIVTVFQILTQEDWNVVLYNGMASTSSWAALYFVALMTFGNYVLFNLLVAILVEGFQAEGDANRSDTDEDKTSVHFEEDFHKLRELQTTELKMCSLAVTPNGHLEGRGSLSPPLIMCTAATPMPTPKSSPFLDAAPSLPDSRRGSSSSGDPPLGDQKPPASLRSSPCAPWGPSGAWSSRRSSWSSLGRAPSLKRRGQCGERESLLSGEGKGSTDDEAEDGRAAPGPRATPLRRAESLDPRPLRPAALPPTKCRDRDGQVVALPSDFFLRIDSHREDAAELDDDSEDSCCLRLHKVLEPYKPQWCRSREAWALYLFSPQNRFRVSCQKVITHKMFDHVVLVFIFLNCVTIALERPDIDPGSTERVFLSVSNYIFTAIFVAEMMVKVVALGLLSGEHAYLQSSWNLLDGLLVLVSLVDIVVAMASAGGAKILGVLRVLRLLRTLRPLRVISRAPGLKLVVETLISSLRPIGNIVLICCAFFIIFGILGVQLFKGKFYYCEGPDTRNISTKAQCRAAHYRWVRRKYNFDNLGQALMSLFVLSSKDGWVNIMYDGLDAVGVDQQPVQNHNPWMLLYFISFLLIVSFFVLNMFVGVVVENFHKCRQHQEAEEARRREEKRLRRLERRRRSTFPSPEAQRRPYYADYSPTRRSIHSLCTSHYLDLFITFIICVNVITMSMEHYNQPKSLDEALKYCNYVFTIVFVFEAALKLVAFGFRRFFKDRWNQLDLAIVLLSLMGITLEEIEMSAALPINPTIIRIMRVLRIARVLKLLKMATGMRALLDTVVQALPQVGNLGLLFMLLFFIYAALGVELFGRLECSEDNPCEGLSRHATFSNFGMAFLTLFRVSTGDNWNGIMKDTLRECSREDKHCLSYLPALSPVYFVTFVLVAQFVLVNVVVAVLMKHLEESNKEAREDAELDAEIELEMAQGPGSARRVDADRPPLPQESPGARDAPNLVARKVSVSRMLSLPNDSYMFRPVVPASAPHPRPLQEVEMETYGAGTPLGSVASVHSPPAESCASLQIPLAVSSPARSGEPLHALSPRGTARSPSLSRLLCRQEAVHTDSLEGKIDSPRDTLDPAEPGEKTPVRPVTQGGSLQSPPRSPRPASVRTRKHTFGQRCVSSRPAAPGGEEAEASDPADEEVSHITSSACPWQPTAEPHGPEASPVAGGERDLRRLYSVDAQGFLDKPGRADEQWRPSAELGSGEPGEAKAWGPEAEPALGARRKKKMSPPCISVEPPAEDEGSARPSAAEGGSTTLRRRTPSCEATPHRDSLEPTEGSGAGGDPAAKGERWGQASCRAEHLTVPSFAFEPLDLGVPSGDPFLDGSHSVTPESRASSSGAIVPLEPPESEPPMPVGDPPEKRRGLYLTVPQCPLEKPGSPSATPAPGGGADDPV
Sequence of Paired box protein Pax-8 (Q06710 whole entry): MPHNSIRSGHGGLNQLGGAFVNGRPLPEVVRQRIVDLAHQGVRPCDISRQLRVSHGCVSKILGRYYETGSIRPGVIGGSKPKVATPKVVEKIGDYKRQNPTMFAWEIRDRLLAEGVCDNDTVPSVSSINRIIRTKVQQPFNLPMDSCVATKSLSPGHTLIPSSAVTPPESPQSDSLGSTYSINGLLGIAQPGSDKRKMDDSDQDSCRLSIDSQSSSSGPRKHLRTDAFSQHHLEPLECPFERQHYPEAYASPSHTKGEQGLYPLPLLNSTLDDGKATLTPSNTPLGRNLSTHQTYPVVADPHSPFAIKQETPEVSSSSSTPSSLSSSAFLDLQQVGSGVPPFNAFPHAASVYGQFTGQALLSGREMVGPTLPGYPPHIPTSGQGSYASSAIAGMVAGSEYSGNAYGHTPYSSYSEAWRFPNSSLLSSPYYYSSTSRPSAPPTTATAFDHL
Sequence of Cytochrome P450 2D6 (P10635 whole entry): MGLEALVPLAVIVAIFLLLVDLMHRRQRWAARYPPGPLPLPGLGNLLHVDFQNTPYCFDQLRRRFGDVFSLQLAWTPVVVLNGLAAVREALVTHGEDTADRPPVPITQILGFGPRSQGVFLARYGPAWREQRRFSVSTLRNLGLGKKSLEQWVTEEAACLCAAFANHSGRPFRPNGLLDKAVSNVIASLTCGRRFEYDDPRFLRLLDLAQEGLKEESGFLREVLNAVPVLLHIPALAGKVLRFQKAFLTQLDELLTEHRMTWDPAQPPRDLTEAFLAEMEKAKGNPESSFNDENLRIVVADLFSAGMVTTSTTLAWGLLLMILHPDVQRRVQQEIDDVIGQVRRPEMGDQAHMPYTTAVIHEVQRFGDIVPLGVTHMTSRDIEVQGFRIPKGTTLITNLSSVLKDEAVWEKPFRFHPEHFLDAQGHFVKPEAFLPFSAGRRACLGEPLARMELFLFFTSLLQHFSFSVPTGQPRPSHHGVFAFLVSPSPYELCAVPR

O=C(CCc1ccccc1)N1CCN(c2ccc(Cl)cc2)CC1
EC50 [1]: 4.01 µM (active)

Cc1nn(-c2nc3ccccc3[nH]2)c(N)c1-c1ccc(Cl)cc1
CC50 [2]: 17.2 µM (active)
CC50 [3]: 31.1 µM (active)
IC50 [4]: 1.23 µM (active)
EC50 [5]: 2.42 µM (active)
CC50 [6]: 16.2 µM (active)
AC50 [7]: 12.6 µM (inconclusive)
EC50 [8]: 8.49 µM (active)
EC50 [9]: > 150 µM (not active)
CC50 [10]: 25.8 µM (active)
AC50 [11]: 25.1 µM (inconclusive)

Nc1ccn([C@@H]2O[C@H](CO)[C@@H](OP(=O)(O)O)[C@H]2O)c(=O)n1
AC50 [12]: 7.94 µM (inconclusive)

O=[N+]([O-])c1ccc2[nH]cnc2c1
AC50 [12]: 25.1 µM (inconclusive)

O=C(NC(=S)Nc1ccccn1)c1cccc([N+](=O)[O-])c1
EC50 [13]: > 350 µM (not active)
EC50 [14]: > 350 µM (not active)

O=C(NCc1ccc(F)cc1)C1CCN(S(=O)(=O)N2CCOCC2)CC1
EC50 [13]: > 350 µM (not active)
EC50 [14]: > 350 µM (not active)

CCc1nc(N2[C@H](C#N)[C@H](c3ccccc3-c3ccccc3F)[C@H]2CO)sc1C
AC50 [15]: 7.33 µM (active)

Nc1cc(=O)[nH]c(=O)n1Cc1ccccc1
AC50 [12]: 25.1 µM (inconclusive)

CCCc1c(O)nc(SCCN(CCC)CCC)nc1O
EC50 [16]: 2.66 µM (active)

COc1ccccc1-c1ccc2c(c1)[C@H]1[C@H](CCN1C(=O)C1CCCC1)[C@@H](CO)N2
AC50 [15]: 4.88 µM (active)

COCCCn1c(N)c(C(=O)Nc2sc3c(c2C(=O)OC)CCCC3)c2nc3ccccc3nc21
EC50 [17]: 27.8 µM (active)
AC50 [18]: 10 µM (inconclusive)
IC50 [19]: > 79 µM (inactive)
EC50 [20]: 33.9 µM (active)

CCCCCn1c(=O)c(C(=O)Nc2nc(CC(=O)OCC)cs2)c(O)c2ccccc21
CC50 [2]: 11.8 µM (active)
IC50 [4]: 2.79 µM (active)
CC50 [6]: > 20 µM (active)
CC50 [10]: 11.1 µM (active)

Clc1ccc(-n2ncc3c(N4CCCC4)ncnc32)cc1
AC50 [21]: 2.04 µM (active)
AC50 [22]: 2.7 µM (active)
AC50 [23]: 1.32 µM (active)

CCCn1c(-c2ccc(F)cc2)nc2c(NCCN3CCCCC3)nc(C)nc21
AC50 [12]: 15.8 µM (inconclusive)

O=C(NCCSc1c[nH]c2ccccc12)c1ccc(Br)o1
EC50 [13]: > 350 µM (not active)
EC50 [14]: > 350 µM (not active)

O=C(NCc1ccccc1)C1=C[C@@H](C2CCCCC2)C[C@@H](OCc2ccc(CO)cc2)O1
EC50 [16]: 2.37 µM (active)

O=C(Cc1cccnc1)N1CC[C@H]2[C@H](CO)Nc3ccc(C#Cc4cccc(F)c4)cc3[C@H]21
AC50 [15]: 6.12 µM (active)

COc1ccc(CNCc2cn(-c3cccc(F)c3)nc2-c2ccc(C)o2)cc1
EC50 [16]: 5.96 µM (active)

Cn1c(=O)c(C(=O)Nc2ccccn2)c(O)c2ccccc21
CC50 [2]: 11.3 µM (active)
IC50 [4]: 11.1 µM (active)
CC50 [6]: > 20 µM (active)
CC50 [10]: 19 µM (active)

CCN1CCN(c2ccc(S(=O)(=O)N3CCCCC3)cc2NC(=O)CC(C)c2ccccc2)CC1 (stereo not given)
EC50 [16]: 1.06 µM (active)

O=C(NC(=S)NCCc1ccccc1)c1ccccc1
CC50 [6]: > 20 µM (active)

COc1ccc(S(=O)(=O)N(Cc2ccccc2)Cc2nc(-c3ccccc3)no2)cc1
EC50 [1]: 6.27 µM (active)

COc1ccc(CCNC(=O)c2cc(-c3cccs3)on2)cc1OC
EC50 [13]: > 350 µM (not active)
EC50 [14]: > 350 µM (not active)

COc1ccc(-c2c(O)c3c(OC)c4c(cc3oc2=O)OC(C)(C)CC4)cc1 [DIHYDROROBUSTIC ACID]
AC50 [12]: 25.1 µM (inconclusive)

COC(=O)c1ccc(C(S)=NCC2(N(C)C)CCCCC2)cc1
EC50 [16]: 5.31 µM (active)

C[C@@H]1CN([C@@H](C)CO)C(=O)c2cc(NS(=O)(=O)c3cccs3)ccc2O[C@@H](C)CCCCO[C@H]1CN(C)Cc1ccc(C(F)(F)F)cc1
AC50 [24]: 44 µM (active)
AC50 [25]: 25.2 µM (active)

Cc1ccc(-n2nnc(-c3nccn3C)n2)cc1
AC50 [26]: > 52 µM (inactive)
AC50 [21]: 5.3 µM (active)
AC50 [27]: > 52 µM (inactive)
AC50 [22]: 6.81 µM (active)

COc1ccc(S(=O)(=O)Nc2ccc3c(c2)C(=O)N([C@H](C)CO)C[C@@H](C)[C@H](CN(C)S(=O)(=O)c2ccc(F)cc2)OCCCC[C@H](C)O3)cc1
AC50 [25]: 4.65 µM (active)
AC50 [28]: > 70 µM (inactive)

CC(C)(C)[S@@+]([O-])N1Cc2cc(C(=O)NCCN3CCCCC3)nc(-c3cccc(-c4cccc(C#N)c4)c3)c2[C@H]1CCO
AC50 [15]: 7.56 µM (active)

C/C=C/OC(=O)NC(c1cccc(C)c1)[C@@]1(C(=O)OCC)CCCC1=O (stereo not given in full)
AC50 [12]: 1.26 µM (inconclusive)

CCn1ncc(C2=NOC(C(=O)Nc3ccc4c(c3)OCO4)C2)c1C (stereo not given)
EC50 [13]: > 350 µM (not active)
EC50 [14]: > 350 µM (not active)

O=c1c(O)c(-c2ccccc2)oc2cccc(O)c12
AC50 [12]: 12.6 µM (inconclusive)

O=C1CN(c2ccccc2)C(=O)N1
EC50 [13]: > 350 µM (not active)
EC50 [14]: > 350 µM (not active)

Cc1nn(Cc2ccccc2)c(Cl)c1C(=O)OCc1nnc(-c2ccccc2)o1
EC50 [1]: 30.4 µM (active)
